# Read-outs that look alike come from different tables or passages of the source.
# Assays:
# macrophages RAW 264.7 = experiment: Formation of osteoclasts from macrophages RAW 264.7 (RANKL, TRAP stain); assay type: cell-based; conditions: Mus musculus, RAW264.7, 120 h; 10 nM, RANKL 50 ng/ml, 5 days; read-out: inhibition percentage
# Protocol: If macrophages RAW 264.7 are incubated in culture plates containing 50 ng/ml of differentiation inducer, RANKL, they usually differentiate into osteoclasts after 5 days. In Experiment H, various concentrations (0, 10, and 50 μM) of kinsenoside or 10 nM of estradiol were added into culture plates containing macrophages RAW 264.7, respectively, and the macrophages RAW 264.7 were incubated for 5 days. […] The number of osteoclasts was counted, and the inhibition percentage of the formation of osteoclasts was calculated with the following formula, and the result is shown in Table 11. Inhibition percentage=(the number of osteoclasts in the control group−the number of osteoclasts in the experimental group)/the number of osteoclasts in the control group×100%
# myelocytes of rats = experiment: Formation of osteoclasts from rat myelocytes (RANKL + M-CSF, TRAP stain); assay type: cell-based, Wistar rats; conditions: Rattus norvegicus, Osteoclast, 216 h, 10 nM, 9 days
# Protocol: Myelocytes were first prepared. Male Wistar rats with the body weight of 250 g to 300 g were used to prepare myelocytes. Under the condition of anaesthesia, the femurs of the rats were taken, and myelocytes were washed out with a phosphate buffer solution. […] After incubation for 9 days, monocytes in the marrow differentiated into osteoclasts. The osteoclasts were stained with a TRAP (tartrate-resistant acid phosphatase) stain reagent (Sigma, Louis, Mo., USA), and the number of the osteoclasts was calculated. Besides the same RANKL and M-CSF as the control group, various concentrations (0, 5, 25, 50, and 100 μM) of kinsenoside or 10 nM of estradiol (Wako, Japan) were added into culture plates, respectively. Then, rat myelocytes were incubated for 9 days, and the situation that the myelocytes differentiated into osteoclasts was observed. The percentage of the inhibition effect of kinsenoside and estradiol on the formation of osteoclasts was calculated with the following formula, and the result is shown in Table 9. Inhibition percentage (%)=(the number of osteoclasts of the control group−the number of osteoclasts of the experimental group)/the number of osteoclasts of the control group×100% In addition to the aforesaid RANKL, kinsenoside, and/or estradiol, the inhibitor of estradiol, Fulvestrant (Sigma, Louis, Mo., USA) (1 nM), was also added into culture plates. Then, rat myelocytes were incubated for 9 days, and the situation that the myelocytes differentiated into osteoclasts was observed. The percentage of the inhibition effect of kinsenoside on the formation of osteoclasts was calculated, and the result is shown in Table 9.
structure (smiles),measurement,setting,value
"C[C@]12CC[C@@H]3c4ccc(O)cc4CC[C@H]3[C@@H]1CC[C@@H]2O [estradiol, reference compound]",inhibition at 0.01 µM,macrophages RAW 264.7,61 ± 16%
same,inhibition at 0.01 µM,"myelocytes of rats; with Fulvestrant 1 nM, read-out: inhibition percentage Experimental Group II",24 ± 13.5%
same,inhibition at 0.01 µM,"myelocytes of rats; without Fulvestrant, read-out: inhibition percentage Experimental Group I",45.7 ± 10.5%
